{"source": "patent US11607404B2", "about": "“Combinations of RAD51 and PARP inhibitors” (Cyteir Therapeutics, Inc., priority 2019, dated 2023)", "key": {"[1]": {"test_system": "Daudi cell line (AID positive)", "test": "Primary screening cell killing assay (Cell-Titer Glo, Day 7)", "format": "cell-based", "conditions": "Homo sapiens, 168 h; Daudi cells (AID positive), cell death on Day 7; read-out: AID+ EC50", "procedure": "Primary screening was a phenotypic screen that utilized the synthetic lethal interaction between AID and RAD51 to identify compounds that were both potent and on target. AID expressing cells are dependent upon RAD51 for survival; inhibiting RAD51 in AID positive cells results in a cytotoxic effect.\n(§1) The first step was to set up a cell killing assay in the Daudi cell line (AID positive). A 96 well u-bottom plate was prepared by writing the experiment number, plate number, date and initials in the top right corner of the plate lid. With a sterile 300 ml reservoir, and 25 ml serological pipette, evaporation buffer media was pipetted into reservoir in 25 ml increments. Using the liquid handler, 150 ul of evaporation buffer media was pipetted from reservoir into rows A and H, and Columns 1 and 12 of the 96 well u-bottom plate. Cell cultures were counted to obtain the density of cells per ml, and the culture viability. The cell density information was used to obtain 1,000,000 cells from culture using a 5 mL serological pipette into an epi tube. The cell density information from the culture was used to calculate the number of cells and volume of media needed for the assay to seed 1250 cells in 130 ul of media per available culture well in the 96 well u-bottom plate. Rows B through F were used for cells (50 wells in total), with row G left for an empty media control. The calculation was overestimated by 10 mL to account for the dead volume in the 300 ml reservoir. Once the media volume was calculated, the appropriate volume of media was pipetted in 25 mL increments into the 250 mL bottle using a 25 mL serological pipette. The 250 ml bottle was capped tightly, and placed into a 37° C. water bath for 2 minutes. While the culture media was warming, 10 mL of fresh media was pipetted from the 500 mL culture media bottle into a sterile 25 mL reservoir. Using the Eppendorf multichannel pipette, 130 ul of media was piptted from the 25 mL reservoir into row G of the 96 well u-bottom plate. Once the 250 mL bottle of media was warmed, the volume of culture needed was pipetted into the bottle, and mixed gently with a 25 mL serological pipette as to not create bubbles, and then the contents of the bottle were pipetted into a new 300 mL reservoir. Using the liquid handler, 130 ul of culture was pipetted from the 300 mL reservoir into rows B through F of the 96 well u-bottom plate. Once the culture was added, the plate was placed into a 37° C. incubator until the compound master plate was prepared for use.\n(§2) Two 96 well u-bottom plates were prepared by writing the master plate name in the upper right corner of the plate lid. Labeling one DMSO master and the other Media Master. The compounds of interest were obtained from the laboratory freezer, and placed into a 25 well storage box with a lid, and set the box aside. The compounds were vortexed after thawing but before use. Using an automatic multichannel pipette, 20 ul of 100% DMSO was pipetted into wells B3-B11 through G3-G11 of the DMSO master plate. For each compound on the master plate, 50 ul of the compound were pipetted in the appropriate well of row 2 (reference plate map to determine appropriate well). A serial dilution was prepared beginning by aspirating 20 ul from row 2 and mixing with row 3, repeating until row 11 was reached. Using the liquid handler, 194 ul of Daudi media was dispensed into wells B2-B11 through G2-G11 of the Media master plate. Using the liquid handler, 6 ul from the DMSO master plate was aspirated and dispensed into the media master plate, mixing 100 ul twice.\nCompounds from master plate were then added to the culture plate. The culture plates were removed from the incubator, and set inside the biosafety cabinet. Using a liquid handler, 20 ul from wells B2 to B11 through G2 to G11 of master plate were aspirated, and dispensed into wells B2 to B11 through G2 to G11 of culture plate. This set was continued with each culture plate. […]"}, "[2]": {"test_system": "ARPE19/HPV16 (HPV Immortalized RPE)", "test": "Cell line screen (potency assay)", "format": "cell-based", "conditions": "ARPE-19, AICDA expression Negative", "procedure": "as §1, §2\nCompounds from master plate were then added to the culture plate. The culture plates were removed from the incubator, and set inside the biosafety cabinet. Using a liquid handler, 20 ul from wells B2 to B11 through G2 to G11 of master plate were aspirated, and dispensed into wells B2 to B11 through G2 to G11 of culture plate. This set was continued with each culture plate. Once the culture plates acquired their 20 ul of compound dilutions, they were placed back into the incubator, until their reads on Day 7 of experiment. Cell death was measured on Day 7 of the experiment using Cell-Titer Glo and a Promega Plate reader. […]"}, "HBCx12B model": {"test_system": "HBCx12B model", "test": "Tumor growth inhibition, subcutaneous engrafted tumor model", "format": "in vivo, mice", "conditions": "HRD Positive, RAD51 High, BRCA1 Meth, PALB2 WT, 67A 80 mg/kg QD, olaparib 100 mg/kg QD, combo both", "procedure": "(§3) Immunodeficient mice were subcutaneously engrafted in the rear flank with the tumor cells. The tumors were allowed to grow to a size of about 100 to about 200 mm^3 prior to being randomized and grouped into treatment arms. For models […] through […] the four treatment arms were vehicle, Compound 67A at 80 mg/kg QD, olaparib at 100 mg/kg QD, and Compound 67A+Olaparib at 80 mg/kg QD and 100 mg/kg QD, respectively. For models J000101173 through TM00091 the treatment arms were vehicle, Compound 67A at 40 mg/kg QD, olaparib at 50 mg/kg QD, and Compound 67A+Olaparib at 40 mg/kg QD and 50 mg/kg QD, respectively. The tumors were measured either once weekly or twice weekly.\n(§4) Percent Tumor Growth Inhibition (% TGI) was calculated by taking the mean volume of each of the treatment arms, and comparing the treatment arms to the vehicle arms using the following equation"}, "HBCx16 model": {"test_system": "HBCx16 model", "test": "Tumor growth inhibition, subcutaneous engrafted tumor model", "format": "in vivo, mice", "conditions": "HRD Positive, RAD51 High, BRCA1 Meth, PALB2 WT, 67A 80 mg/kg QD, olaparib 100 mg/kg QD, combo both", "procedure": "as §3, §4"}, "HBCx17 model": {"test_system": "HBCx17 model", "test": "Tumor growth inhibition, subcutaneous engrafted tumor model", "format": "in vivo, mice", "conditions": "HRD Positive, RAD51 High, BRCA2 Mut, PALB2 WT, 67A 80 mg/kg QD, olaparib 100 mg/kg QD, combo both", "procedure": "as §3, §4"}, "J000100675 model": {"test_system": "J000100675 model", "test": "Tumor growth inhibition, subcutaneous engrafted tumor model", "format": "in vivo, mice", "conditions": "HRD Negative, RAD51 Low, BRCA WT, PALB2 WT, 67A 40 mg/kg QD, olaparib 50 mg/kg QD, combo both", "procedure": "as §3, §4"}, "J000101173 model": {"test_system": "J000101173 model", "test": "Tumor growth inhibition, subcutaneous engrafted tumor model", "format": "in vivo, mice", "conditions": "HRD Positive, RAD51 Low, BRCA WT, PALB2 WT, 67A 40 mg/kg QD, olaparib 50 mg/kg QD, combo both", "procedure": "as §3, §4"}, "TM00091 model": {"test_system": "TM00091 model", "test": "Tumor growth inhibition, subcutaneous engrafted tumor model", "format": "in vivo, mice", "conditions": "HRD Positive, RAD51 High, BRCA1 Mut, PALB2 WT, 67A 40 mg/kg QD, olaparib 50 mg/kg QD, combo both", "procedure": "as §3, §4"}, "TM00096 model": {"test_system": "TM00096 model", "test": "Tumor growth inhibition, subcutaneous engrafted tumor model", "format": "in vivo, mice", "conditions": "HRD Positive, RAD51 Low, BRCA WT, PALB2 WT, 67A 40 mg/kg QD, olaparib 50 mg/kg QD, combo both", "procedure": "as §3, §4"}}}
{"smiles": "CC(C)OC(=O)Nc1ccc(-c2cnc([C@H]3CC[C@H](NC(=O)OC(C)C)CC3)s2)c(S(=O)(=O)NC(C)(C)C)c1", "note": "[Compound 67A, trans-isopropylN-[3-(tert-butylsulfamoyl)-4-[2-[4-(isopropoxycarbonylamino)cyclohexyl]thiazol-5-yl]phenyl]carbamate]", "values": [{"measurement": "EC50", "setting": "[1]", "value": "≤ 1", "unit": "µM"}, {"measurement": "EC50", "setting": "[2]", "value": "> 10", "unit": "µM"}, {"measurement": "% TGI", "setting": "HBCx12B model", "value": "−3.27", "unit": "%"}, {"measurement": "% TGI", "setting": "HBCx16 model", "value": "−22.45", "unit": "%"}, {"measurement": "% TGI", "setting": "HBCx17 model", "value": "−51.13", "unit": "%"}, {"measurement": "% TGI", "setting": "J000100675 model", "value": 36.69, "unit": "%"}, {"measurement": "% TGI", "setting": "J000101173 model", "value": 19.87, "unit": "%"}, {"measurement": "% TGI", "setting": "TM00091 model", "value": 27, "unit": "%"}, {"measurement": "% TGI", "setting": "TM00096 model", "value": "−25.4", "unit": "%"}]}
